The source made the active and inactive calls.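 How the source made its calls: active means EGR1 protein level shifted at least 30% up or down versus solvent-only cells; inactive means shift under 30% either way.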
Target: Early growth response protein 1 (Homo sapiens) (UniProt P18146)
Experiment: EGR1 protein level change in HT29 cells, late-stage follow-up, counter-screen for KLF5 inhibitor project, cell-based, HT29 colorectal carcinoma, chemiluminescent western blot (AID 588657)
Conditions: 24 h, at 10 µM, hits give high values

Early growth response protein 1 (Homo sapiens), sequence (P18146 whole entry, looked up): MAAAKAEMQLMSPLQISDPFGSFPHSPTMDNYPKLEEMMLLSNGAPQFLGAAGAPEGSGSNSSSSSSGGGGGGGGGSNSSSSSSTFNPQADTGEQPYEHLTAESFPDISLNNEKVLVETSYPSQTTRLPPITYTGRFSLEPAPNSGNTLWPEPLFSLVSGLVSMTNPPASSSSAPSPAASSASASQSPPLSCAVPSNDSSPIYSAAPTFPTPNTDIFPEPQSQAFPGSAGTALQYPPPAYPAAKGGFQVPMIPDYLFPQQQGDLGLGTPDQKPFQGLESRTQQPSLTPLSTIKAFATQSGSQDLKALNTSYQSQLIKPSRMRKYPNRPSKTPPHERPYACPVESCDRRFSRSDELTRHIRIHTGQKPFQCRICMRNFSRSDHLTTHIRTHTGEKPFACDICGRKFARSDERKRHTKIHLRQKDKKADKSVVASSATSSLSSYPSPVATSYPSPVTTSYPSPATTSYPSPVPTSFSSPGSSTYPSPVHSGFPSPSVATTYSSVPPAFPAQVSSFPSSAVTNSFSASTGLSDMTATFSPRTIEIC

inhibition | Compound
9.34% (inactive) | CN(C(=O)CNC(=O)/C=C/c1cccc(Cl)c1)C1CCS(=O)(=O)C1 (stereo not drawn)
64.5% | CN(C(=O)CNC(=O)/C=C/c1cccc(Cl)c1)C1CCS(=O)(=O)CC1
29.7% | CN(C(=O)COC(=O)/C=C/c1cccc([N+](=O)[O-])c1)C1CCS(=O)(=O)C1 (stereo not drawn)
